Results reported in patent US20250313642A1, “METHODS OF TREATING ACUTE AND CHRONIC GRAFT VERSUS HOST DISEASE” (Forte Subsidiary, Inc., priority 2022, published 2025).

Tests used:
[1] = tested on: xenograft GvHD mouse model (NCG-hIL-15 mice transplanted with human PBMCs); test: Xenograft acute GvHD mouse model, single vs combination therapy, survival; type: in vivo; details: Day 18; treatment D5-D18; ruxolitinib 60 mpk PO twice-daily; Antibody 1 75 mpk IP once-daily; n=10
Method: A xenograft GvHD mouse model was utilized to study human T and NK cell-mediated aGvHD and the therapeutic effects of anti-CD122 antibody treatment in single or combination therapy approaches. Female NCG-hIL-15 mice were irradiated at a dosage of 100 cGy on Day 1 of the protocol and human peripheral blood mononuclear cells (PBMCs) were transplanted via injection at a dosage of 1×10^7 cells/200 μL/mice via IV administration into the irradiated mice according to the same xenograft GvHD mouse model design as in Example 4.
Treatment according to 3 different grouping of animals was begun on Day 5 following transplant, as shown in the study design of FIG. 4. Groups of 10 mice were used for each test category. A single treatment group, Group #1, (n=10) received ruxolitinib (at a dosage of 60 mpk) twice-daily by oral administration (PO) beginning on Day 5 and ending on Day 18. Days of treatment were D5, D6, D7, D8, D9, D10, D11, D12, D13, D14, D15, D16, D17, and D18. A combination therapy group. Group #2. (n=10) received ruxolitinib (at a dosage of 60 mpk) twice-daily by oral administration beginning on Day 5 and ending on Day 18. […]
Day 18 was the end of study day for all treatment groups. Animals from all treatment groups were assessed daily beginning on Day 1 and ending on Day 18 for survival following transplant. […]

[2] = tested on: allogeneic model of chronic GvHD (BALB/c mice); test: Allogeneic chronic GvHD mouse model (B10.D2 donor into BALB/c host), GvHD score; type: in vivo; details: Antibody 3 100 mpk IP Q.O.D., Ruxolitinib 60 mpk PO b.i.d.
From the text: An allogeneic model of chronic GvHD according to the animal model design of Ramos et al (Ramos T L et al. Delayed administration of ixazomib modifies the immune response and prevents chronic graft-versus-host disease. Bone Marrow Transplant. 2021 December;56(12):3049-3058) was investigated. In this model as shown in the study design of FIG. 6. B10.D2 mice serve as donor for bone marrow and splenocytes to be transplanted into irradiated BALB/c host mice. […] In this model of cGvHD, there is a low mortality rate extending past 150 days post-transplant and cGvHD symptoms can typically appear starting at approximately 30 days post-transplant. Study design includes treatment start at Day 30 post-transplant and end of study is marked at Day 60 post-transplant. […] Two test treatment groups included Group 2) Antibody 3 anti-CD122 antibody therapy (100 mpk delivered IP every other day (Q.O.D.), and Group 3) ruxolitinib monotherapy (60 mpk PO b.i.d). One negative control group (Group 1) including vehicle (IP Q.O.D.)+vehicle (PO b.i.d.) was also tested. Phenotypic cGvHD score and survival were assessed starting at Day 30 and ending at Day 60 post-transplant.
• BALB/c mice were randomized into treatment groups based on Day 1 bodyweight. • Female BALB/c mice were irradiated (5 Gy) and intravenously injected with B10.D2 donor cells on Day 1. • Cell injection volume was about 200 μL of Bone Marrow cells and splenocytes mixture as described below in treatments. Total cell volume injection=200 μL in PBS. • GvHD Scoring and body weight measurement assessed on Day 30, 33, 35, 37, 39, 41, 43, 45, 48, 51, 53, 56, 58, and 60. • Individual scores according to the grading system below of Grade 0, 1, or 2 were measured and documented on each assessed day for each criterion of body weight loss, activity, posture, fur texture, and skin integrity for each subject in each test group. Each criterion was then summed per subject to yield a total GvHD score by subject per assessed day (e.g., add score for bodyweight loss, activity, posture, fur texture, and skin integrity to yield total GvHD score). • Total GvHD scores per animal per day were then averaged per group to yield average GvHD score per test group and the standard error of the mean (SEM) for each group was determined.

N#CC[C@H](C1CCCC1)n1cc(-c2ncnc3[nH]ccc23)cn1 [ruxolitinib]
survival rate at the end of the study [1]: 30% | Average total GvHD score (mean) ([2]; D 30 post-transplant): 0.6 | Average total GvHD score (mean) ([2]; D 33 post-transplant): 0.6 | Average total GvHD score (mean) ([2]; D 35 post-transplant): 0.7 | Average total GvHD score (mean) ([2]; D 39 post-transplant): 1.2 | Average total GvHD score (mean) ([2]; D 43 post-transplant): 1.1 | Average total GvHD score (mean) ([2]; D 45 post-transplant): 1.2 | Average total GvHD score (mean) ([2]; D 48 post-transplant): 1.2 | Average total GvHD score (mean) ([2]; D 51 post-transplant): 1.2 | Average total GvHD score (mean) ([2]; D 56 post-transplant): 1.4 | Average total GvHD score (mean) ([2]; D 60 post-transplant): 1.7
